Measured values published in patent publication US20100160361A1, “TREATMENT OF MAJOR ADVERSE CARDIAC EVENTS AND ACUTE CORONARY SYNDROME USING SECRETORY PHOSPHOLIPASE A2 (SPLA2) INHIBITOR OR SPLA2 INHIBITOR COMBINATION THERAPIES” (priority 2008, published 2010).
Read-outs that look alike come from different tables or passages of the source.

Columns and labels:
serum sPLA2 = experiment: Serum sPLA2 levels in human ACS subjects; assay type: in vivo; details: ITT population
Protocol: (§1) 625 adult (18 years of age or older) unstable human subjects who had recently experienced an index ACS event (UA, NSTEMI, or STEMI) were randomized to receive placebo or A-002 at 500 mg once daily via oral administration in a double-blinded manner. A-002 was delivered in the form of two 250 mg tablets. In addition, all subjects received atorvastatin at 80 mg once daily via oral administration of a single tablet.
(§2) Subjects were randomized within 96 hours of hospital admission for an index ACS event, or within 96 hours of index ACS event diagnosis if already hospitalized. Prior to randomization, subjects were screened for pertinent medical history, and baseline levels of LDL and hs-CRP were measured. Baseline sPLA2 levels were also measured in a random subset of subjects. Percutaneous revascularization, if required or planned for a particular subject, was performed prior to randomization.
(§3) Subjects were excluded if they were receiving statin therapy at maximum recommended or tolerated dosage (i.e., 40-80 mg QD for atorvastatin, fluvastatin, lovastatin, pravastatin, or simvastatin, or 20-40 mg QD rosuvastatin) at the time of the index ACS event. During the trial, subjects were prevented from using any lipid-lowering therapy other than 80 mg atorvastatin and/or A-002.
(§4) For purposes of this study, MACEs included all-cause mortality, non-fatal MI, documented UA requiring urgent hospitalization, revascularization occurring 60 days or more after the initial index ACS event, and non-fatal stroke. Subjects were evaluated at 2, 4, 8, 12, 16, 20, and 24 weeks after randomization and monthly thereafter until study completion. Each evaluation included measurement of serum LDL levels and recordation of any MACEs or less severe adverse events occurring since the previous evaluation. In addition, certain evaluation periods included measurement of one or more of hs-CRP, sPLA2, IL-6, and/or other biomarker levels, vital signs, weight, and/or waist circumference. […] This final evaluation included at least a complete physical examination, a 12-lead ECG reading, measurement of LDL, hs-CRP, sPLA2, and IL-6 levels, and recordation of any MACEs during the study period.

serum LDL = details: for % of subjects with [LDL] < 50 mg/dl / % of subjects with [LDL] < 70 mg/dl / % of subjects with [LDL] < 100 mg/dl / % change in mean [LDL] from baseline / Change in mean [LDL] from baseline: ITT population
serum hs-CRP = experiment: Serum hs-CRP levels in human ACS subjects; assay type: in vivo
Protocol: as §1, §2, §3, §4

LDL and CRP levels = experiment: Reaching composite target LDL and hs-CRP levels in human ACS subjects; assay type: in vivo; details: ITT population
Protocol: as §1, §2, §3, §4

Human ACS Subjects = experiment: Major adverse cardiac events (MACEs) in human ACS subjects; assay type: in vivo
Protocol: as §1, §2, §3, §4

[1] = system: subjects that had recently experienced an ACS event; details: 80 mg atorvastatin; subjects that had recently experienced an ACS event (Schwartz 2001); cited from earlier work
serum IL-6 = experiment: Serum IL-6 levels in human ACS subjects; assay type: in vivo
Protocol: as §1, §2, §3, §4

[2] = ITT population, cumulative at 16 weeks

## CC(C)c1c(C(=O)Nc2ccccc2)c(-c2ccccc2)c(-c2ccc(F)cc2)n1CC[C@@H](O)C[C@@H](O)CC(=O)O [Placebo (atorvastatin only), atorvastatin]
Serum sPLA2; Week 2
  % change in median [sPLA2] from baseline: +5.4%
Serum sPLA2; Week 4
  % change in median [sPLA2] from baseline: −7.0%
Serum sPLA2; Week 8
  % change in median [sPLA2] from baseline: −15.6%
Serum sPLA2; Week 16
  % change in median [sPLA2] from baseline: −12.1%
Serum LDL; Baseline
  % of subjects with [LDL] < 50 mg/dl: 1.1%
  % of subjects with [LDL] < 70 mg/dl: 5.2%
  % of subjects with [LDL] < 100 mg/dl: 24.1%
Serum LDL; Week 2
  % change in mean [LDL] from baseline: −41.7%
  % of subjects with [LDL] < 50 mg/dl: 21.9%
  % of subjects with [LDL] < 70 mg/dl: 54.6%
  % of subjects with [LDL] < 100 mg/dl: 89.1%
  Change in mean [LDL] from baseline: -52.5 mg/dL
Serum LDL; Week 4
  % change in mean [LDL] from baseline: −42.3%
  % of subjects with [LDL] < 50 mg/dl: 25.0%
  % of subjects with [LDL] < 70 mg/dl: 54.8%
  % of subjects with [LDL] < 100 mg/dl: 91.2%
  Change in mean [LDL] from baseline: -55.5 mg/dL
Serum LDL; Week 8
  % change in mean [LDL] from baseline: −43.8%
  % of subjects with [LDL] < 50 mg/dl: 22.7%
  % of subjects with [LDL] < 70 mg/dl: 59.9%
  % of subjects with [LDL] < 100 mg/dl: 91.4%
  Change in mean [LDL] from baseline: -56.6 mg/dL
Serum LDL; Week 16
  % change in mean [LDL] from baseline: −36.5%
  % of subjects with [LDL] < 50 mg/dl: 16.8%
  % of subjects with [LDL] < 70 mg/dl: 48.3%
  % of subjects with [LDL] < 100 mg/dl: 82.4%
  Change in mean [LDL] from baseline: -48.1 mg/dL
Serum LDL; Week 24
  % change in mean [LDL] from baseline: −38.2%
  % of subjects with [LDL] < 50 mg/dl: 14.1%
  % of subjects with [LDL] < 70 mg/dl: 50.0%
  % of subjects with [LDL] < 100 mg/dl: 86.5%
  Change in mean [LDL] from baseline: -50.0 mg/dL
Serum LDL; final study visit
  percentage of subjects reaching target LDL levels of 50 mg/dl or less: 16.0%
  percentage of subjects reaching target LDL levels of 70 mg/dl or less: 42.8%
Serum hs-CRP; ITT population, Week 2
  % change in median [hs-CRP] from baseline: −20.0%
Serum hs-CRP; ITT population, Week 4
  % change in median [hs-CRP] from baseline: −63.5%
Serum hs-CRP; ITT population, Week 8
  % change in median [hs-CRP] from baseline: −71.0%
Serum hs-CRP; ITT population, Week 16
  % change in median [hs-CRP] from baseline: −71.8%
Serum hs-CRP; ITT population, Week 24
  % change in log mean [hs-CRP] from baseline: −77.0%
Serum hs-CRP; diabetes subpopulation, Week 2
  % change in median [hs-CRP] from baseline: −11.0%
Serum hs-CRP; diabetes subpopulation, Week 4
  % change in median [hs-CRP] from baseline: −51.1%
Serum hs-CRP; diabetes subpopulation, Week 8
  % change in median [hs-CRP] from baseline: −67.6%
Serum hs-CRP; diabetes subpopulation, Week 16
  % change in median [hs-CRP] from baseline: −72.4%
Serum hs-CRP; diabetes subpopulation, Week 24
  % change in median [hs-CRP] from baseline: −76.1%
LDL and CRP levels; Baseline
  % of subjects with mean [LDL] < 70 mg/dl and [hs-CRP] <1 mg/L: 0.4%
  % of subjects with mean [LDL] < 70 mg/dl and [hs-CRP] < 3 mg/L: 1.4%
LDL and CRP levels; Week 2
  % of subjects with mean [LDL] < 70 mg/dl and [hs-CRP] <1 mg/L: 5.6%
  % of subjects with mean [LDL] < 70 mg/dl and [hs-CRP] < 3 mg/L: 16.4%
LDL and CRP levels; Week 4
  % of subjects with mean [LDL] < 70 mg/dl and [hs-CRP] <1 mg/L: 12.8%
  % of subjects with mean [LDL] < 70 mg/dl and [hs-CRP] < 3 mg/L: 30.5%
LDL and CRP levels; Week 8
  % of subjects with mean [LDL] < 70 mg/dl and [hs-CRP] <1 mg/L: 17.5%
  % of subjects with mean [LDL] < 70 mg/dl and [hs-CRP] < 3 mg/L: 36.8%
LDL and CRP levels; Week 16
  % of subjects with mean [LDL] < 70 mg/dl and [hs-CRP] <1 mg/L: 15.6%
  % of subjects with mean [LDL] < 70 mg/dl and [hs-CRP] < 3 mg/L: 32.9%
LDL and CRP levels; Week 24
  % of subjects with mean [LDL] < 70 mg/dl and [hs-CRP] <1 mg/L: 15.9%
  % of subjects with mean [LDL] < 70 mg/dl and [hs-CRP] < 3 mg/L: 34.1%
Human ACS Subjects; ITT population, 0-30 days
  Death (# of events): 4
  MI (# of events): 2
  Stroke (# of events): 0
  Total MACE (# of events): 12
  UA (# of events): 6
Human ACS Subjects; ITT population, 0-60 days
  Death (# of events), cumulative: 4
  MI (# of events), cumulative: 3
  Stroke (# of events), cumulative: 0
  Total MACE (# of events), cumulative: 14
  UA (# of events), cumulative: 7
Human ACS Subjects; ITT population, 0-90 days
  Death (# of events), cumulative: 5
  MI (# of events), cumulative: 3
  Stroke (# of events), cumulative: 1
  Total MACE (# of events), cumulative: 17
  UA (# of events), cumulative: 8
Human ACS Subjects; ITT population, 0-112 days
  Death (# of events), cumulative: 5
  MI (# of events), cumulative: 4
  Stroke (# of events), cumulative: 1
  Total MACE (# of events), cumulative: 19
  UA (# of events), cumulative: 9
Human ACS Subjects; ITT population, 30-60 days
  Death (# of events): 0
  MI (# of events): 1
  Stroke (# of events): 0
  Total MACE (# of events): 2
  UA (# of events): 1
Human ACS Subjects; ITT population, 60-90 days
  Death (# of events): 1
  MI (# of events): 0
  Stroke (# of events): 1
  Total MACE (# of events): 3
  UA (# of events): 1
Human ACS Subjects; ITT population, 90-112 days
  Death (# of events): 0
  MI (# of events): 1
  Stroke (# of events): 0
  Total MACE (# of events): 2
  UA (# of events): 1
Human ACS Subjects; [2]
  Death (% of subjects): 1.6%
  Death (number): 5
  MI (% of subjects): 1.3%
  MI (number): 4
  Revascularization ≧ 60 days (number): 0
  Stroke (% of subjects): 0.3%
  Stroke (number): 1
  Total MACEs (% of subjects): 6.1%
  Total MACEs (number): 19
  UA requiring hospitalization (% of subjects): 2.9%
  UA requiring hospitalization (number): 9
Human ACS Subjects; days 0 to 30
  % of subjects who experienced a MACE: 3.9%
Human ACS Subjects; days 0 to 60
  % of subjects who experienced a MACE: 4.5%
Human ACS Subjects; days 0 to 90
  % of subjects who experienced a MACE: 5.5%
[1]
  absolute reduction in death, non-fatal MI, cardiac arrest with resuscitation, or worsening symptomatic myocardial ischemia: 2.6%
  relative reduction in death, non-fatal MI, cardiac arrest with resuscitation, or worsening symptomatic myocardial ischemia: 16%
Serum IL-6; ITT population, Week 2
  % change in median [IL-6] from baseline: −5.2%
Serum IL-6; ITT population, Week 4
  % change in median [IL-6] from baseline: −33.7%
Serum IL-6; ITT population, Week 8
  % change in median [IL-6] from baseline: −38.3%
Serum IL-6; diabetes subpopulation, Week 2
  % change in median [IL-6] from baseline: +3.5%
Serum IL-6; diabetes subpopulation, Week 4
  % change in median [IL-6] from baseline: −23.9%
Serum IL-6; diabetes subpopulation, Week 8
  % change in median [IL-6] from baseline: −40.4%
